pIC50: −log10 of the molar value.

One series deals with Ba/F3 cells KRAS G12C. The series is described as follows: Ba/F3 proliferation assay (KRAS G12C). The series is classed as cell-based. To be noted: 72 h, AlamarBlue viability. Here is the method: (§1) Ba/F3 cells are ordered from DSMZ (ACC300, Lot17) and grown in RPMI-1640 (ATCC 30-2001)+10% FCS+10 ng/mL IL-3 at 37° C. in 5% […] atmosphere. Plasmids containing KRASG12 mutants (i.e. […], G12C, G12V) are obtained from GeneScript. To generate KRASG12-dependent Ba/F3 models, Ba/F3 cells are transduced with retroviruses containing vectors that harbor KRASG12 isoforms. Platinum-E cells (Cell Biolabs) are used for retrovirus packaging. Retrovirus is added to Ba/F3 cells. To ensure infection, 4 μg/mL polybrene is added and cells are spinfected. Infection efficiency is confirmed by measuring GFP-positive cells using a cell analyzer. Cells with an infection efficiency of 10% to 20% are further cultivated and puromycin selection with 1 μg/mL is initiated. As a control, parental Ba/F3 cells are used to show selection status. Selection is considered successful when parental Ba/F3 cells cultures died. To evaluate the transforming potential of KRASG12 mutations, the growth medium is no longer supplemented with IL-3. Ba/F3 cells harboring the empty vector are used as a control. Approximately ten days before conducting the experiments, puromycin is left out.
(§2) For proliferation assays, Ba/F3 cells are seeded into 384-well plates at 1.5×1 (M cells/60 μL in growth media (RPMI-1640+10% FCS). Compounds (10 mM stock in DMSO) are added at logarithmic dose series using the ECHO acoustic liquid handler system (Beckman Coulter), normalizing for added DMSO and including DMSO controls. All compound treatments are performed in technical duplicates. For the TO time point measurement, untreated cells are analyzed at the time of compound addition. Treated cells are incubated for 72 h at 37° C. with 5% CO2 and cell viability is measured in the PerkinElmer Envision Multimode Reader using AlamarBlue™ (ThermoFisher) viability stain. Viability (stated as percent of control) is defined as relative fluorescence units RFU of each well divided by the RFU of cells in DMSO controls. IC50 values are determined from viability measurements by non-linear regression using a four-parameter model.
`C[C@H](Oc1nc(-c2noc3c2CCC[C@@]32CCCc3sc(N)c(C#N)c32)nc2c1CC[C@]21CNCCO1)[C@@H]1C[C@@H](F)CN1C` [II-20] gave a pIC50 of 6.74.

Still in this series, the particulars now being: Mus musculus, BaF3, 72 h, AlamarBlue viability.
Regarding `CC(C)n1c(=O)n([C@@H]2CCOC2)c2nc(-c3onc4c3CCC[C@@]43CCCc4sc(N)c(C#N)c43)nc(O[C@@H](C)[C@@H]3CCCN3C)c21` [I-32], the pIC50 is 7.64.
Same read-out and setting: in the case of `C[C@H](Oc1nc(-c2onc3c2CCC[C@@]32CCCc3sc(N)c(C#N)c32)nc2c1n(C)c(=O)n2[C@@H]1CC2CCC1O2)[C@@H]1CCCN1C` (stereo partly shown) [I-18] it was 6.96; in that of `C[C@H](Oc1nc(-c2onc3c2CCC[C@@]32CCCc3sc(N)c(C#N)c32)nc2c1n(C)c(=O)n2[C@@H]1CCOC1)[C@@H]1CCCN1C` [I-20], 8.40.

In the next series the test system is Ba/F3 cells KRAS G12V. Put plainly: Ba/F3 proliferation assay (KRAS G12V). The series is classed as cell-based. To be noted: 72 h, AlamarBlue viability. Here is the method:
as §1, §2
For the compound `C[C@H](Oc1nc(-c2noc3c2CCC[C@@]32CCCc3sc(N)c(C#N)c32)nc2c1CC[C@]21CNCCO1)[C@@H]1C[C@@H](F)CN1C` [II-20], the negative-log IC50 (pIC50) is 7.02.

Still in this series, the particulars now being: Mus musculus, BaF3, 72 h, AlamarBlue viability.
The compound `CC(C)n1c(=O)n([C@@H]2CCOC2)c2nc(-c3onc4c3CCC[C@@]43CCCc4sc(N)c(C#N)c43)nc(O[C@@H](C)[C@@H]3CCCN3C)c21` [I-32] had a negative logarithm of the IC50 (pIC50) of 7.89.
Same read-out and setting: in the case of `C[C@H](Oc1nc(-c2onc3c2CCC[C@@]32CCCc3sc(N)c(C#N)c32)nc2c1n(C)c(=O)n2[C@@H]1CC2CCC1O2)[C@@H]1CCCN1C` (stereo partly shown) [I-18] it was 7.16.
Still for that read-out and setting: in the case of `C[C@H](Oc1nc(-c2onc3c2CCC[C@@]32CCCc3sc(N)c(C#N)c32)nc2c1n(C)c(=O)n2[C@@H]1CCOC1)[C@@H]1CCCN1C` [I-20] it was 8.70.

Another series relates to AsPC-1 cells. Put plainly: AsPC-1 CTG proliferation assay (120 h) (pancreatic cancer, G12D).
Details: not given
The series is classed as cell-based. Here is the method:
(§3) AsPC-1 cells (ATCC CRL-1682) are dispensed into black 384-well plates, flat and clear bottom (Greiner, PNr. 781091) at a density of 500 cells per well in 60 μl RPMI ATCC-Formulation (PAN P04-18047)+10% FCS (fetal calf serum, HyClone, SH30084.03). Cells are incubated overnight at 37° C. in a humidified tissue culture incubator at 5% CO2. Compounds (10 mM stock in DMSO) are added at logarithmic dose series using the ECHO acoustic liquid handler system (Beckman Coulter), normalizing for added DMSO and including DMSO controls. All compound treatments are performed in technical duplicates. For the TO time point measurement, untreated cells are analyzed at the time of compound addition. Plates are incubated for 120 h, and cell viability is measured using CellTiter-Glo luminescent cell viability reagent (Promega product code G7570). Viability (stated as percent of control) is defined as relative luminescence units RLU of each well divided by the RLU of cells in DMSO controls. IC50 values are determined from viability measurements by non-linear regression using a four-parameter model.
(§4) IC50 values of representative compounds according to the invention measured with these assays in the indicated cell lines are presented in Table 46.
The compound `C[C@H](Oc1nc(-c2noc3c2CCC[C@@]32CCCc3sc(N)c(C#N)c32)nc2c1CC[C@]21CNCCO1)[C@@H]1C[C@@H](F)CN1C` [II-20] had a pIC50 of 6.67.

Still in this series, the particulars now being: Homo sapiens, ASPC1.
In turn, `CC(C)n1c(=O)n([C@@H]2CCOC2)c2nc(-c3onc4c3CCC[C@@]43CCCc4sc(N)c(C#N)c43)nc(O[C@@H](C)[C@@H]3CCCN3C)c21` [I-32] showed a negative logarithm of the IC50 (pIC50) of 5.82.
Still for that read-out and setting: in the case of `C[C@H](Oc1nc(-c2onc3c2CCC[C@@]32CCCc3sc(N)c(C#N)c32)nc2c1n(C)c(=O)n2[C@@H]1CC2CCC1O2)[C@@H]1CCCN1C` (stereo partly shown) [I-18] it was 5.36; in that of `C[C@H](Oc1nc(-c2onc3c2CCC[C@@]32CCCc3sc(N)c(C#N)c32)nc2c1n(C)c(=O)n2[C@@H]1CCOC1)[C@@H]1CCCN1C` [I-20], 6.61.

Another series deals with MKN1 cells. Put plainly: MKN1 CTG proliferation assay (120 h) (gastric cancer, wt amplified). The series is classed as cell-based. The conditions noted are these: Homo sapiens, MKN-1. Here is the method:
as §3, with “MKN1” for “AsPC-1”, “(JCRB0252)” for “(ATCC CRL-1682)”, “200” for “500”, “RPMI-1640” for “RPMI”, “(Gibco #A10491)+10%” for “(PAN P04-18047)+10%”
as §4
In turn, `CC(C)n1c(=O)n([C@@H]2CCOC2)c2nc(-c3onc4c3CCC[C@@]43CCCc4sc(N)c(C#N)c43)nc(O[C@@H](C)[C@@H]3CCCN3C)c21` [I-32] had a pIC50 of 6.37.
The compound `C[C@H](Oc1nc(-c2onc3c2CCC[C@@]32CCCc3sc(N)c(C#N)c32)nc2c1n(C)c(=O)n2[C@@H]1CC2CCC1O2)[C@@H]1CCCN1C` (stereo partly shown) [I-18] gave a pIC50 of 6.34.
Still for that read-out and setting: the result for `C[C@H](Oc1nc(-c2onc3c2CCC[C@@]32CCCc3sc(N)c(C#N)c32)nc2c1n(C)c(=O)n2[C@@H]1CCOC1)[C@@H]1CCCN1C` [I-20] reads 8.10.

Test system in another series: not listed separately
The series is described as follows: Metabolic (microsomal) stability assay, human liver microsomes (HLM). The conditions noted are these: 1 μM test compound, predicted clearance as percent of liver blood flow. The series is classed as in vitro ADME. Here is the method: The metabolic degradation of the test compound is assayed at 37° C. with pooled liver microsomes (mouse (MLM), rat (RLM) or human (HLM)). The final incubation volume of 48 μL per time point contains TRIS buffer (pH 7.5; 0.1 M), magnesium chloride (6.5 mM), microsomal protein (0.5 mg/mL for mouse/rat, 1 mg/mL for human specimens) and the test compound at a final concentration of 1 μM. Following a short preincubation period at 37° C., the reactions are initiated by addition of 12 μL beta-nicotinamide adenine dinucleotide phosphate, reduced form (NADPH, 10 mM) and terminated by transferring an aliquot into solvent after different time points (0, 5, 15, 30, 60 min). Additionally, the NADPH-independent degradation is monitored in incubations without NADPH, terminated at the last time point by addition of acetonitrile. The quenched incubations are pelleted by centrifugation (4,000 rpm, 15 min). An aliquot of the supernatant is assayed by LC-MS/MS to quantify the concentration of parent compound in the individual samples.
In vitro intrinsic clearance (CLint,in vitro) is calculated from the time course of the disappearance of the test drug during the microsomal incubation. Each plot is fitted to the first-order elimination rate constant as C(t)=C0*exp(−ke*t), where C(t) and C0 are the concentration of unchanged test drug at incubation time t and that at preincubation and ke is the disappearance rate constant of the unchanged drug. Subsequently, CLint, in vitro (μL min^−1·amount protein) values are converted to predicted CLint,in vivo (mL min^−1·kg^−1) from incubation parameters according to the equation CLint, in vivo=CLint, in vitro×(incubation volume (mL)/amount protein (mg))×(amount protein (mg)/g liver tissue)×(liver weight/body wt.).
For better across species comparison the predicted clearance is expressed as percent of the liver blood flow [% QH] (mL min^−1·kg^−1) in the individual species. In general, high stability (corresponding to low % QH) of the compounds across species is desired.
With `CC(C)n1c(=O)n([C@@H]2CCOC2)c2nc(-c3onc4c3CCC[C@@]43CCCc4sc(N)c(C#N)c43)nc(O[C@@H](C)[C@@H]3CCCN3C)c21` [I-32], the “HLM QH” value is given as 88%.
As to `C[C@H](Oc1nc(-c2onc3c2CCC[C@@]32CCCc3sc(N)c(C#N)c32)nc2c1n(C)c(=O)n2[C@@H]1CC2CCC1O2)[C@@H]1CCCN1C` (stereo partly shown) [I-18], the “HLM QH” value was 31%.
The same measure, in the same setting: the result for `C[C@H](Oc1nc(-c2onc3c2CCC[C@@]32CCCc3sc(N)c(C#N)c32)nc2c1n(C)c(=O)n2[C@@H]1CCOC1)[C@@H]1CCCN1C` [I-20] reads 26%; that for `C[C@H](Oc1nc(-c2noc3c2CCC[C@@]32CCCc3sc(N)c(C#N)c32)nc2c1CC[C@]21CNCCO1)[C@@H]1C[C@@H](F)CN1C` [II-20], 36%.

Values taken from US20250019385A1, “SPIROCYCLIC ANNULATED 2-AMINO-3-CYANO THIOPHENES AND DERIVATIVES FOR THE TREATMENT OF CANCER” (Boehringer Ingelheim International GmbH, priority 2023, published 2025).
